Measurements taken from ChEMBL document CHEMBL3098055 (Bioorg Med Chem Lett, 2014).
Bridge positions count the residues as written; N and C are the ends. Square brackets hold non-standard residues; d marks the D form. Peptide text beside a SMILES is read from it. AllylGly = C=CC[C@H](N)C(=O)O

Legend:
Assay type in all cases: cell-based
[1] = target: Somatostatin receptor type 5 (Homo sapiens, UniProt P35346); test: Displacement of [125I]-somatostatin from human SSTR5 expressed in CHO-K1 cells
[2] = target: Somatostatin receptor type 4 (Homo sapiens, UniProt P31391); test: Displacement of [125I]-somatostatin from human SSTR4 expressed in CHO-K1 cells
Somatostatin receptor type 4, sequence (P31391 whole entry): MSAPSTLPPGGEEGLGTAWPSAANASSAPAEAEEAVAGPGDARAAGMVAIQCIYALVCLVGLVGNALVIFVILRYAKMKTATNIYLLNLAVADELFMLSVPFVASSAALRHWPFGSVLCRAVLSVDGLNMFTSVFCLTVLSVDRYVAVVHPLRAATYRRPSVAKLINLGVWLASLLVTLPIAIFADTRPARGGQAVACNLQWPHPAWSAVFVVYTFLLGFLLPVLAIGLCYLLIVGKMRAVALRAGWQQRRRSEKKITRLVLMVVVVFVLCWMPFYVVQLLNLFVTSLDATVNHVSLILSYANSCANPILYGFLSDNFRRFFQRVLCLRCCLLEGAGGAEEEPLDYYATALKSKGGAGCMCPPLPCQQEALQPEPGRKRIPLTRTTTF

[3] = target: Somatostatin receptor type 3 (Homo sapiens, UniProt P32745); test: Displacement of [125I]-somatostatin from human SSTR3 expressed in CHO-K1 cells
Somatostatin receptor type 3, sequence (P32745 whole entry): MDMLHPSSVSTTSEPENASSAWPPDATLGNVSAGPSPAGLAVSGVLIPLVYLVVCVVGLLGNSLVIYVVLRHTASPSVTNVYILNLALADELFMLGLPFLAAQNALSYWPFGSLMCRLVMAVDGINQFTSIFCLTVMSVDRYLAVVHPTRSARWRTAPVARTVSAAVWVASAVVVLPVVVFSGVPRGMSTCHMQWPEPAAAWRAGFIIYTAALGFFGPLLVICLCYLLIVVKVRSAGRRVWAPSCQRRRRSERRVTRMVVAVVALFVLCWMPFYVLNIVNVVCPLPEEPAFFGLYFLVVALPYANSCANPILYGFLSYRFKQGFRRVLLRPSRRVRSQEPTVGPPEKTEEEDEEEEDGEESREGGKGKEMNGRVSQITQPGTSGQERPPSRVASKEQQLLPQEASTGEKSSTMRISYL

[4] = target: Somatostatin receptor type 2 (Homo sapiens, UniProt P30874); test: Displacement of [125I]-somatostatin from human SSTR2 expressed in CHO-K1 cells
Somatostatin receptor type 2, sequence (P30874 whole entry): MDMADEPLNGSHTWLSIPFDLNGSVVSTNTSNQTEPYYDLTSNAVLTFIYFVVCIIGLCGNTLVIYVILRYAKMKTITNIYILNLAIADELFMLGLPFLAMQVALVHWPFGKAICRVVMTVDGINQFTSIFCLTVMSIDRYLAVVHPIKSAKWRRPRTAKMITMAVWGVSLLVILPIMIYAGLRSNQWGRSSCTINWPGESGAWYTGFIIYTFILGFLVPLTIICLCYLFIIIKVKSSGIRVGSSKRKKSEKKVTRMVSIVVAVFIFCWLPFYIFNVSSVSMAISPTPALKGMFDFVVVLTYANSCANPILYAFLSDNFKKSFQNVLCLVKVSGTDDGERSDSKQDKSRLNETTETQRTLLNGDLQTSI

[5] = target: Somatostatin receptor type 1 (Homo sapiens, UniProt P30872); test: Displacement of [125I]-somatostatin from human SSTR1 expressed in CHO-K1 cells
Somatostatin receptor type 1, sequence (P30872 whole entry): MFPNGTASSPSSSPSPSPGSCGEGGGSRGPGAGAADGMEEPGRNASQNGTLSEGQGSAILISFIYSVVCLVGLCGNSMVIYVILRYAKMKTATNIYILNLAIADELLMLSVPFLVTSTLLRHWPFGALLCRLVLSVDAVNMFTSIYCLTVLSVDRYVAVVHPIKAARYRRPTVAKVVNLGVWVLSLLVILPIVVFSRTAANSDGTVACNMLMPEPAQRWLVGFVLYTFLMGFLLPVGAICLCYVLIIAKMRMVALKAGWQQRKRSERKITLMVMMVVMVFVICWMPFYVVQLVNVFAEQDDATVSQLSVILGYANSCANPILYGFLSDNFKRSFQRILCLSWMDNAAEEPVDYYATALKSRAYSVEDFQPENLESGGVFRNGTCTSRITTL

Somatostatin receptor type 5, sequence (P35346 whole entry): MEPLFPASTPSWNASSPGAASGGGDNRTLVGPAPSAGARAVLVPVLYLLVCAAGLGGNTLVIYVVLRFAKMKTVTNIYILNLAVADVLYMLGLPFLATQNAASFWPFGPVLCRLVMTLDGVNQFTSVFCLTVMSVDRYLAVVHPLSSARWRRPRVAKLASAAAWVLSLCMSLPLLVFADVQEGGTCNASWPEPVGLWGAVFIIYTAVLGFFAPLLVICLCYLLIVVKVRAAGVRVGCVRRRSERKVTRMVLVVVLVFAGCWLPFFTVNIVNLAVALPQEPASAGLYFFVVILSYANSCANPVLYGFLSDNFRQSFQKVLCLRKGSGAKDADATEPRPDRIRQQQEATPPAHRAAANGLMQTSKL

C[C@H](N)C(=O)NCC(=O)N[C@H]1C/C=C\C[C@@H](C(N)=O)NC(=O)[C@H](CO)NC(=O)[C@H]([C@@H](C)O)NC(=O)[C@H](Cc2ccccc2)NC(=O)[C@H]([C@@H](C)O)NC(=O)[C@H](CCCCN)NC(=O)[C@H](Cc2c[nH]c3ccccc23)NC(=O)[C@H](Cc2ccccc2)NC(=O)[C@H](Cc2ccccc2)NC(=O)[C@H](CC(N)=O)NC(=O)[C@H](CCCCN)NC1=O (H-AG[AllylGly]KNFFWKTFTS[AllylGly]-NH2; staple (Z) 3-14)
Ki [1]: 0.2 nM
Ki [2]: 1.77 nM
Ki [3]: 4.24 nM
Ki [4]: 0.41 nM
Ki [5]: 0.31 nM
